Measured values reported in patent publication US12240844B2 (Voronoi, Inc., priority 2019, dated 2025).

Tests used:
SHP-77 = SHP-77 cancer cell proliferation inhibition (Cell Titer-Glo); type: cell-based; conditions: Homo sapiens, SHP77, SHP-77 small cell lung cancer cell line, 72 hours
Method: (§1) In order to evaluate the cancer cell proliferation inhibitory activity of the compounds of the present invention, the following experiments were performed.
(§2) To evaluate the cancer cell proliferation inhibitory effect, the cell growth rate analysis was performed while culturing MDA-MB-231 cell line (Korean Cell Line Bank #30026) and MDA-MB-468 cell line as the triple-negative breast cancer cell line, and SHP-77 (ATCC #CRL-2195) as the small cell lung cancer cell line in DMEM (HyClone #SH30243) and RPMI medium (HyClone #SH3027.01), respectively. More specifically, the cell lines were each plated at 2000 cells/100 μl in each well of a 96-well flat-bottom plate (coming #3903), and then the example compounds having eleven concentrations which were diluted by ⅓ so that the final concentrations were 10.000000, 3.333333, 1.111111, 0.370370, 0.123457, 0.041152, 0.013717, 0.004572, 0.001524, 0.000508 and 0.000169 μM were treated. After 72 hours, 100 μl of Cell Titer-Glo (Promega G7573) was treated, incubated at RT for 10 minutes, and then luminescence was measured using a microplate reader. The measured luminescence degree was calculated as GI50 using Prism (version 8.2 GraphPad) software.
(§3) In the table below, the following designations were used for the evaluation of proliferation inhibitory activity.

[1] = molecular target: T1, human GST-DYRK1A (full length) (Homo sapiens, UniProt Q13627); assay: GST-DYRK1A enzyme inhibition, ADP-Glo kinase assay; type: biochemical; conditions: read-out: DYRK1 IC50
T1 construct: purified human GST-DYRK1A (full length, Thermo scientifics) enzyme; GST; purchased Thermo scientifics
Method in brief: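 ADP-Glo luminescence quantified kinase activity after a 1 h, 25° C reaction of 10 ng full-length GST-tagged human DYRK1A, substrate and 10 uM ATP in Tris-HCl buffer pH 7.4 with MgCl2, BSA and DTT. Triplicate IC50 values (nM) calculated relative to untreated solvent control.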

LRRK2 (G2019S) = LRRK2 (G2019S) (Homo sapiens, UniProt Q5S007, G2019S); assay: LRRK2 G2019S enzyme inhibition, ADP-Glo kinase assay; type: biochemical; design: purchased SignalChem L10-12GG
Sequence of LRRK2 (G2019S) (Q5S007 970-2527 G2019S limits assumed): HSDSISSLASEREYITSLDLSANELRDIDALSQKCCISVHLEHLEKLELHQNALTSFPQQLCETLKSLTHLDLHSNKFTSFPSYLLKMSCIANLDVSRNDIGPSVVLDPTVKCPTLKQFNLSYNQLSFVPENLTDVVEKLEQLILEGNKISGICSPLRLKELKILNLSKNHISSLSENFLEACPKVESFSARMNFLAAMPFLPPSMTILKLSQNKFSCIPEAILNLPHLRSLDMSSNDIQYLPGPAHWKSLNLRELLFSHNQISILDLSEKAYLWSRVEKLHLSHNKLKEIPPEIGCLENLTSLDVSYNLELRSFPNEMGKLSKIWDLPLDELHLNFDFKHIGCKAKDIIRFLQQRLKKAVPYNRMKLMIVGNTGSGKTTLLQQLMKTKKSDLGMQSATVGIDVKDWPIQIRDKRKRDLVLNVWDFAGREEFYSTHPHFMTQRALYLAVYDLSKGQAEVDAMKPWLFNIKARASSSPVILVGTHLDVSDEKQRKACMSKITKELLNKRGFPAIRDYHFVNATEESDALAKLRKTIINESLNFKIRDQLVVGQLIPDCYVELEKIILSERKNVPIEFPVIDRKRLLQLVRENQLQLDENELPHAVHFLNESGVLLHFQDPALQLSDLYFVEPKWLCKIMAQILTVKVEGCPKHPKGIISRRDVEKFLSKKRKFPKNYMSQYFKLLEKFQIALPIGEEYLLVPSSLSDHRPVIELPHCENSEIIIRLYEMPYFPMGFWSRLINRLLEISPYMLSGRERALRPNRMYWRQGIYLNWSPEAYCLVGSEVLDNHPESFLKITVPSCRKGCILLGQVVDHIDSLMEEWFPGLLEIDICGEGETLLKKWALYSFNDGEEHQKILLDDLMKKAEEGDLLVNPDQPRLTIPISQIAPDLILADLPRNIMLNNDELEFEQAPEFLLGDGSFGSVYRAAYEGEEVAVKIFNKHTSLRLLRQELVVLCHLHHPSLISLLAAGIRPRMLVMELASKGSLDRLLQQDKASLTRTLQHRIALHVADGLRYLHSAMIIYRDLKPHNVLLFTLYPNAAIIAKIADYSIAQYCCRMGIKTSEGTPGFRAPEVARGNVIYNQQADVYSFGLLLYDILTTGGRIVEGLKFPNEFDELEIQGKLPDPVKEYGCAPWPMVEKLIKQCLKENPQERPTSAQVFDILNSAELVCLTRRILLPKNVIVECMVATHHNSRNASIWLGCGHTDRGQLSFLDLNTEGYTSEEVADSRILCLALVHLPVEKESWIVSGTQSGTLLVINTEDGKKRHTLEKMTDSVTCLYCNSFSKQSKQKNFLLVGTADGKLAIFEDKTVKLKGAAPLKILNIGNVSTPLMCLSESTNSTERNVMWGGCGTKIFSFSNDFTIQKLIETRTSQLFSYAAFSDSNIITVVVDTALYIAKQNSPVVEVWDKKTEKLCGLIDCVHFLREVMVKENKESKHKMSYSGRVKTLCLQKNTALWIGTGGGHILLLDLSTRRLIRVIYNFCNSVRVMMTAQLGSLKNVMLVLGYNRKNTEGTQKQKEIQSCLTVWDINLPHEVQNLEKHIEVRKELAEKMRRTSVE
Method in brief: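 Activity read as ADP-Glo luminescence, normalized to untreated solvent control, with IC50 (nM) fitted over 12 final compound levels (top 50 μM). Reaction: 2 h, 25° C, human LRRK2 G2019S 16 ng, ATP 25 μM, substrate 0.2 μg, in Tris-HCl pH 7.4 with MgCl2, BSA and DTT.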

LRRK2 = LRRK2 (Homo sapiens, UniProt Q5S007); assay: LRRK2 enzyme inhibition, ADP-Glo kinase assay; type: biochemical; design: purchased Invitrogen PR8604B
Sequence of LRRK2 (Q5S007 970-2527 limits assumed): as the sequence (Q5S007 970-2527 G2019S limits assumed) above, with S1050G counted along it
Method in brief: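 ADP-Glo luminescence read after 2 h at 25° C, 10 μM ATP, 25 ng purified human LRRK2 and […] substrate in Tris-HCl pH7.4 buffer with MgCl2, BSA, DTT. Twelve final concentrations, 50 μM down to 0.000001024 μM; IC50 (nM) from inhibition relative to untreated solvent control.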

MDA-MB-231 cell line = assay: MDA-MB-231 cancer cell proliferation inhibition (Cell Titer-Glo); type: cell-based; conditions: Homo sapiens, MDA-MB-231 triple-negative breast cancer cell line, 72 hours
Method: as §1, §2, §3

human GST-CLK1 (129-end) = molecular target: T2, human GST-CLK1 (129-end) (Homo sapiens, UniProt P49759); assay: GST-CLK1 enzyme inhibition, ADP-Glo kinase assay; type: biochemical; conditions: ATP 10 uM
T2 construct: purified human GST-CLK1 (129-end, Signalchem) enzyme; GST; purchased Signalchem
T2 sequence (P49759 129-484 limits assumed): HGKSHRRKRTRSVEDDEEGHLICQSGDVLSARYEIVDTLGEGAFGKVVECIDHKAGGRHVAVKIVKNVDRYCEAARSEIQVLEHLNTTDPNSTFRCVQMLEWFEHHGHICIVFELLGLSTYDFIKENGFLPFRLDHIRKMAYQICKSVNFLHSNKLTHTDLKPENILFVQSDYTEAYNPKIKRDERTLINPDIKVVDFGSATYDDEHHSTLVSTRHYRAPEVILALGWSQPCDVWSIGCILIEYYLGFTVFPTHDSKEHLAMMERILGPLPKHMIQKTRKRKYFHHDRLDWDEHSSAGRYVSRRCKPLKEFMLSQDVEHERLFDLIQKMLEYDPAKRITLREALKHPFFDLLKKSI
Method in brief: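 ADP formation was read by ADP-Glo luminescence after 1 h at 25° C with 3 ng human GST-CLK1 (129-end), substrate and 10 uM ATP in Tris pH 7.4 buffer containing MgCl2, BSA and DTT. Inhibition relative to untreated solvent control gave IC50 (nM), run in triplicate.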

human DYRK1A and Tau = assay: Tau phosphorylation inhibition, ClariCELL Kinase Cell-Based Assay (Carnabio)
Method: Tau phosphorylation inhibitory efficacy was measured using the ClariCELL™ Kinase Cell-Based Assay service of Carnabio, located in the United States. The compounds are exposed to human embryonic kidney ([…]) cells transiently expressing human DYRK1A and Tau, and then the cells are lysed to release cellular proteins. At this time, the released Tau is captured on a plate, and the degree of phosphorylation is quantified by ELISA using an antibody specific for Tau phosphorylation.

| SMILES | GI50 (SHP-77) | IC50 [1] | IC50 (LRRK2 (G2019S)) | IC50 (LRRK2) | GI50 (MDA-MB-231 cell line) | IC50 (human GST-CLK1 (129-end)) | inhibition at 0.25 µM (human DYRK1A and Tau) | inhibition at 0.5 µM (human DYRK1A and Tau) | inhibition at 1 µM (human DYRK1A and Tau) |
| --- | --- | --- | --- | --- | --- | --- | --- | --- | --- |
| COc1cc(S(=O)(=O)N2CCOCC2)ccc1Nc1cc(NCCS(C)(=O)=O)c2c(C#N)c[nH]c2n1 [Example 130, 6-((2-methoxy-4-(morpholinosulfonyl)phenyl)amino)-4-((2-(methylsulfonyl)ethyl)amino)-1H-pyrrolo[2,3-b]pyridine-3-carbonitrile] | 301 to 1000 nM | 101 to 300 nM | < 100 nM | < 100 nM | 301 to 1000 nM | 301 to 1000 nM | – | – | – |
| CCNc1cc(Nc2ccc(S(=O)(=O)N3CCC(N4CCOCC4)CC3)cc2OC)nc2[nH]cc(C(F)(F)F)c12 [Example 185, N^4-ethyl-N^6-(2-methoxy-4-((4-morpholinopiperidin-1-yl)sulfonyl)phenyl)-3-(trifluoromethyl)-1H-pyrrolo[2,3-b]pyridine-4,6-diamine] | < 50 nM | 101 to 300 nM | < 100 nM | < 100 nM | 51 to 100 nM | 101 to 300 nM | 22.9% | 37.7% | 56.2% |
| COCCNc1cc(Nc2ccc(S(=O)(=O)N3CCOCC3)cc2OC)nc2[nH]cc(C#N)c12 [Example 129, 6-((2-methoxy-4-(morpholinosulfonyl)phenyl)amino)-4-((2-methoxyethyl)amino)-1H-pyrrolo[2,3-b]pyridine-3-carbonitrile] | < 50 nM | 301 to 1000 nM | < 100 nM | < 100 nM | 101 to 300 nM | 301 to 1000 nM | – | – | – |
| CNc1cc(Nc2ccc(S(=O)(=O)N3CCC(N4CCOCC4)CC3)cc2OC)nc2[nH]cc(C#N)c12 [Example 137, 6-((2-methoxy-4-((4-morpholinopiperidin-1-yl)sulfonyl)phenyl)amino)-4-(methylamino)-1H-pyrrolo[2,3-b]pyridine-3-carbonitrile] | 51 to 100 nM | 301 to 1000 nM | < 100 nM | < 100 nM | 51 to 100 nM | 301 to 1000 nM | – | – | – |
| COc1cc(S(=O)(=O)N2CCOCC2)ccc1Nc1cc(NC2CCCCC2)c2c(C(F)(F)F)c[nH]c2n1 [Example 181, N^4-cyclohexyl-N^6-(2-methoxy-4-(morpholinosulfonyl)phenyl)-3-(trifluoromethyl)-1H-pyrrolo[2,3-b]pyridine-4,6-diamine] | 301 to 1000 nM | 301 to 1000 nM | 301 to 1000 nM | 301 to 1000 nM | 301 to 1000 nM | 301 to 1000 nM | – | – | – |
| CCNc1cc(Nc2ccc(S(=O)(=O)N3CCC(N4CCOCC4)CC3)cc2OC)nc2[nH]cc(C#N)c12 [Example 138, 4-(ethylamino)-6-((2-methoxy-4-((4-morpholinopiperidin-1-yl)sulfonyl)phenyl)amino)-1H-pyrrolo[2,3-b]pyridine-3-carbonitrile] | < 50 nM | 101 to 300 nM | < 100 nM | < 100 nM | < 50 nM | 301 to 1000 nM | – | – | – |
| CCCNc1cc(Nc2ccc(S(=O)(=O)N3CCC(N4CCOCC4)CC3)cc2OC)nc2[nH]cc(C(F)(F)F)c12 [Example 40, N^6-(2-methoxy-4-((4-morpholinopiperidin-1-yl)sulfonyl)phenyl)-N^4-propyl-3-(trifluoromethyl)-1H-pyrrolo[2,3-b]pyridine-4,6-diamine] | 301 to 1000 nM | < 100 nM | – | 301 to 1000 nM | 301 to 1000 nM | 301 to 1000 nM | 9.2% | 15.2% | 38.7% |
| CCNc1cc(Nc2ccc(S(=O)(=O)N3CCOCC3)c3c2OCCO3)nc2[nH]cc(C(F)(F)F)c12 [Example 99, N^4-ethyl-N^6-(8-(morpholonosulfonyl)-2,3-dihydrobenzo[b] [1,4]dioxin-5-yl)-3-(trifluoromethyl)-1H-pyrrolo[2,3-b]pyridine-4,6-diamine] | 301 to 1000 nM | 301 to 1000 nM | 301 to 1000 nM | 301 to 1000 nM | 301 to 1000 nM | 301 to 1000 nM | – | – | – |

Continued, in another order:

| GI50 (SHP-77) | IC50 [1] | IC50 (LRRK2 (G2019S)) | IC50 (LRRK2) | GI50 (MDA-MB-231 cell line) | IC50 (human GST-CLK1 (129-end)) | SMILES | inhibition at 0.25 µM (human DYRK1A and Tau) | inhibition at 0.5 µM (human DYRK1A and Tau) | inhibition at 1 µM (human DYRK1A and Tau) |
| --- | --- | --- | --- | --- | --- | --- | --- | --- | --- |
| 301 to 1000 nM | 301 to 1000 nM | 301 to 1000 nM | 301 to 1000 nM | 301 to 1000 nM | 301 to 1000 nM | COc1cc(S(=O)(=O)N2CCOCC2)ccc1Nc1cc(NCC(C)C)c2c(C(F)(F)F)c[nH]c2n1 [Example 189, N^4-isobutyl-N^6-(2-methoxy-4-(morpholinosulfonyl)phenyl)-3-(trifluoromethyl)-1H-pyrrolo[2,3-b]pyridine-4,6-diamine] | – | – | – |
| 301 to 1000 nM | 301 to 1000 nM | 301 to 1000 nM | 301 to 1000 nM | 301 to 1000 nM | 301 to 1000 nM | COc1cc(S(=O)(=O)N2CCOCC2)ccc1Nc1cc(NC2CC2)c2c(C(F)(F)F)c[nH]c2n1 [Example 186, N^4-cyclopropyl-N^6-(2-methoxy-4-(morpholinosulfonyl)phenyl)-3-(trifluoromethyl)-1H-pyrrolo[2,3-b]pyridine-4,6-diamine] | – | – | – |
| 301 to 1000 nM | < 100 nM | 301 to 1000 nM | 101 to 300 nM | 301 to 1000 nM | 301 to 1000 nM | COc1cc(S(=O)(=O)N2CCOCC2)ccc1Nc1cc(NCCS(C)(=O)=O)c2c(C(F)(F)F)c[nH]c2n1 [Example 192, N^6-(2-methoxy-4-(morpholinosulfonyl)phenyl)-N^4-(2-(methylsulfonyl)ethyl)-3-(trifluoromethyl)-1H-pyrrolo[2,3-b]pyridine-4,6-diamine] | – | – | – |
| 301 to 1000 nM | 301 to 1000 nM | 301 to 1000 nM | 101 to 300 nM | 301 to 1000 nM | 301 to 1000 nM | COc1cc(S(=O)(=O)N2CCC(N3CCOCC3)CC2)ccc1Nc1cc(NCC(C)C)c2c(C(F)(F)F)c[nH]c2n1 [Example 191, N^4-isobutyl-N^6-(2-methoxy-4-((4-morpholinopiperidin-1-yl)sulfonyl)phenyl)-3-(trifluoromethyl)-1H-pyrrolo[2,3-b]pyridine-4,6-diamine] | – | – | – |
| 101 to 300 nM | 301 to 1000 nM | 101 to 300 nM | < 100 nM | 301 to 1000 nM | 301 to 1000 nM | COc1cc(S(=O)(=O)N2CCC(N3CCOCC3)CC2)ccc1Nc1cc(NC2CC2)c2c(C(F)(F)F)c[nH]c2n1 [Example 188, N^4-cyclopropyl-N^6-(2-methoxy-4-((4-morpholinopiperidin-1-yl)sulfonyl)phenyl)-3-(trifluoromethyl)-1H-pyrrolo[2,3-b]pyridine-4,6-diamine 2,2,2-trifluoroacetate] | – | – | – |
| 101 to 300 nM | 101 to 300 nM | < 100 nM | < 100 nM | 301 to 1000 nM | < 100 nM | COCCNc1cc(Nc2ccc(S(=O)(=O)N3CCC(N4CCOCC4)CC3)cc2OC)nc2[nH]cc(C(F)(F)F)c12 [Example 197, N^6-(2-methoxy-4-((4-morpholinopiperidin-1-yl)sulfonyl)phenyl)-N^4-(2-methoxyethyl)-3-(trifluoromethyl)-1H-pyrrolo[2,3-b]pyridine-4,6-diamine] | – | – | – |
